The text below walks through data of the supplement of paper PMC10307832.

Common to all, as to test: relative viability (nuclei count vs DMSO), 5 days (fraction); higher = more cells survive
Compound in assay [1]: COC1=CC=C(C=C1)CN2C=CC3=C2C=C(C=C3)C(=O)NO + Nc1nc2[nH]cc(CCc3ccc(C(=O)N[C@@H](CCC(=O)O)C(=O)O)cc3)c2c(=O)[nH]1 [Pemetrexed] (partner 0.2 µM)
In short, it runs like this:
(§1)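 For relative viability, nuclei counts in treated wells were divided by those in vehicle wells. Lung cancer cell lines had been pin-tool dosed in 1536-well plates the day after seeding and cultured for 5 days, then fixed and stained in one step (final 0.05% Triton X-100, 1% formaldehyde, 1 ug/ml Hoechst) and imaged at 4×. Doses were one drug alone or a fixed anchor-drug dose plus five library-drug doses (not always all listed) in √10 steps, and values are duplicate-plate medians.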

Compound in assay [2]: C[C@]1(c2nc3c(C(N)=O)cccc3[nH]2)CCCN1 [Veliparib] + CS(=O)(=O)N1CCN(Cc2cc3nc(-c4cccc5[nH]ncc45)nc(N4CCOCC4)c3s2)CC1 [Pictilisib] (partner 1 µM)
In short, it runs like this:
as §1

Compound in assay [3]: C[C@]1(c2nc3c(C(N)=O)cccc3[nH]2)CCCN1 [Veliparib] + CCNC(=O)c1noc(-c2cc(C(C)C)c(O)cc2O)c1-c1ccc(CN2CCOCC2)cc1 [Luminespib] (partner 0.01 µM)
In outline: as §1

Compound in assay [4]: COC1=CC=C(C=C1)CN2C=CC3=C2C=C(C=C3)C(=O)NO + Cc1nc(Nc2ncc(C(=O)Nc3c(C)cccc3Cl)s2)cc(N2CCN(CCO)CC2)n1 [Dasatinib] (partner 0.075 µM)
In outline: as §1

SW 1573: the relative viability was 0.906 in assay [1] (first compound 0.253 µM); 0.82 in assay [1] (first compound 0.8 µM); 0.853 in assay [1] (first compound 2.53 µM); 0.803 in assay [1] (first compound 8 µM); 0.459 in assay [2] (first compound 0.02 µM); 0.587 in assay [2] (first compound 0.06325 µM). Further, the relative viability stood at 0.476 in assay [2] (first compound 0.2 µM); 0.497 in assay [2] (first compound 0.6325 µM); 0.418 in assay [2] (first compound 2 µM); 0.169 in assay [3] (first compound 0.02 µM); 0.204 in assay [3] (first compound 0.06325 µM); 0.169 in assay [3] (first compound 0.2 µM). Also, the relative viability in assay [3] (first compound 0.6325 µM) turned out to be 0.254; in assay [3] (first compound 2 µM) it was 0.214; in assay [4] (first compound 0.253 µM) it was 0.545; in assay [4] (first compound 0.8 µM), 0.702; in assay [4] (first compound 2.53 µM) it was 0.561; in assay [4] (first compound 8 µM), 0.322.
